According to patent publication US20140357655A1, “SPIROINDOLINE DERIVATIVES AS GONADOTROPIN- RELEASING HORMONE RECEPTOR ANTAGONISTS” (Bayer Intellectual Property GmbH, priority 2012, published 2014):

Target: T1, human GnRH receptor (Homo sapiens, UniProt P30968)
T1 sequence (P30968 1-328): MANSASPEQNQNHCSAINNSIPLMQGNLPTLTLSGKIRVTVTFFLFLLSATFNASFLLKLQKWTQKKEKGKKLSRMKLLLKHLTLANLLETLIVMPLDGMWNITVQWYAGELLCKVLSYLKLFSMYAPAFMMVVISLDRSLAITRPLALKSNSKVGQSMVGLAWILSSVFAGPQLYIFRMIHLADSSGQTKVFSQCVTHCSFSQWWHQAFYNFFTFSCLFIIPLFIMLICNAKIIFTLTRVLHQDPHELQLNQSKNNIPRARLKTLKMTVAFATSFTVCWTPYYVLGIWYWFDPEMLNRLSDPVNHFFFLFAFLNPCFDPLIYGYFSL
Assay: IP-One HTRF assay with buserelin (at EC80) stimulation
Format: cell-based
Conditions: CHO cells stably expressing human GnRH receptor, read-out: Potency in IP-One HTRF assay, given as IC50
In short: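 Ten-point duplicate titrations (20 μM to 1 nM) were fitted by 4-parameter model to normalized 665/620 nm HTRF ratios, 0% = no compound, 100% = no agonist. Assay measured IP1 accumulation in human GnRH-R CHO cells stimulated 1 h at 37° C with EC80 buserelin, then lysed 1 h at 22° C.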

| Structure (SMILES) | IC50 [nM] |
| --- | --- |
| N#Cc1ccc(S(=O)(=O)N2c3ccc(C(=O)NCc4ccccc4C(F)(F)F)cc3C3(CCS(=O)(=O)CC3)C2C2CC2)cc1 (centres unmarked) [Example 72, 1-[(4-cyanophenyl)sulfonyl]-2-cyclopropyl-N-[2-(trifluoromethyl)benzyl]-1,2,2′,3′,5′,6′-hexahydrospiro[indole-3,4′-thiopyran]-5-carboxamide 1′,1′-dioxide] | 13 |
| O=C(NCc1ccccc1Cl)c1ccc2c(c1)C1(CCSCC1)C(C1CC1)N2S(=O)(=O)c1ccc(F)cc1 (racemic) [Example 12, N-(2-Chlorobenzyl)-2-cyclopropyl-1-[(4-fluorophenyl)sulfonyl]-1,2,2′,3′,5′,6′-hexahydrospiro[indole-3,4′-thiopyran]-5-carboxamide] | 186 |
| COC(=O)c1cccc(NC(=O)c2ccc3c(c2)C2(CCS(=O)(=O)CC2)C(C2CC2)N3S(=O)(=O)c2cccc(OC(F)F)c2)c1 (single isomer, unassigned) [Example 89.2, methyl 3-{[(2-cyclopropyl-1-{[3-(difluoromethoxy)phenyl]sulfonyl}-1′,1′-dioxido-1,2,2′,3′,5′,6′-hexahydrospiro[indole-3,4′-thiopyran]-5-yl)carbonyl]amino}benzoate] | > 20000 |
| O=C(NCC1CCCC1)c1ccc2c(c1)C1(CCS(=O)(=O)CC1)C(C1CC1)N2S(=O)(=O)c1ccc(F)cc1 (single isomer, unassigned) [Example 38.1, N-(cyclopentylmethyl)-2-cyclopropyl-1-[(4-fluorophenyl)sulfonyl]-1,2,2′,3′,5′,6′-hexahydrospiro[indole-3,4′-thiopyran]-5-carboxamide 1′,1′-dioxide] | 88 |
| C=CCC1N(S(=O)(=O)c2cccc(C(=O)OC)c2)c2ccc(C(=O)NCc3ccccc3Cl)cc2C12CCS(=O)(=O)CC2 (centres unmarked) [Example 54, methyl 3-({5-[N-(2-chlorobenzyl)carbamoyl]-1′,1′-dioxido-2-(prop-2-en-1-yl)-1,2,2′,3′,5′,6′-hexahydrospiro[indole-3,4′-thiopyran]-1-yl}sulfonyl)benzoate] | 91 |
| NS(=O)(=O)c1cccc(NC(=O)c2ccc3c(c2)C2(CCS(=O)(=O)CC2)C(C2CC2)N3S(=O)(=O)c2ccc(F)cc2)c1 (single isomer, unassigned) [Example 30.1, 2-cyclopropyl-1-[(4-fluorophenyl)sulfonyl]-N-(3-sulfamoylphenyl)-1,2,2′,3′,5′,6′-hexahydrospiro[indole-3,4′-thiopyran]-5-carboxamide 1′,1′-dioxide] | 441 |
| COc1cccc(S(=O)(=O)N2c3ccc(C(=O)Nc4cccc(S(N)(=O)=O)c4)cc3C3(CCS(=O)(=O)CC3)C2C2CC2)c1 (single isomer, unassigned) [Example 42.2, 2-cyclopropyl-1-[(3-methoxyphenyl)sulfonyl]-N-(3-sulfamoylphenyl)-1,2,2′,3′,5′,6′-hexahydrospiro[indole-3,4′-thiopyran]-5-carboxamide 1′,1′-dioxide] | 99 |
| COc1cccc(S(=O)(=O)N2c3ccc(C(=O)NCc4ccccc4C(F)(F)F)cc3C3(CCS(=O)(=O)CC3)C2C2CC2)c1 (single isomer, unassigned) [Example 40.1, 2-cyclopropyl-1-[(3-methoxyphenyl)sulfonyl]-N-[2-(trifluoromethyl)benzyl]-1,2,2′,3′,5′,6′-hexahydrospiro[indole-3,4′-thiopyran]-5-carboxamide 1′,1′-dioxide] | 19 |
| COc1cccc(S(=O)(=O)N2c3ccc(C(=O)Nc4cccc(C(=O)O)c4)cc3C3(CCS(=O)(=O)CC3)C2C2CC2)c1 (centres unmarked) [Example 50, 3-[({2-cyclopropyl-1-[(3-methoxyphenyl)sulfonyl]-1′,1′-dioxido-1,2,2′,3′,5′,6′-hexahydrospiro[indole-3,4′-thiopyran]-5-yl}carbonyl)amino]benzoic acid] | 54 |
| N#Cc1cccc(S(=O)(=O)N2c3ccc(C(=O)Nc4ccon4)cc3C3(CCS(=O)(=O)CC3)C2C2CC2)c1 (single isomer, unassigned) [Example 80.1, 1-[(3-cyanophenyl)sulfonyl]-2-cyclopropyl-N-(1,2-oxazol-3-yl)-1,2,2′,3′,5′,6′-hexahydrospiro[indole-3,4′-thiopyran]-5-carboxamide 1′,1′-dioxide] | 315 |
| O=C(NC1CCOc2ccccc21)c1ccc2c(c1)C1(CCS(=O)(=O)CC1)C(C1CC1)N2S(=O)(=O)c1ccc(F)cc1 (single isomer, unassigned) [Example 33.1, 2-cyclopropyl-N-(3,4-dihydro-2H-chromen-4-yl)-1-[(4-fluorophenyl)sulfonyl]-1,2,2′,3′,5′,6′-hexahydrospiro[indole-3,4′-thiopyran]-5-carboxamide 1′,1′-dioxide] | 425 |
| C=CC1N(S(=O)(=O)c2cccc(C(=O)OC)c2)c2ccc(C(=O)NCc3ccccc3Cl)cc2C12CCS(=O)(=O)CC2 (centres unmarked) [Example 55, methyl 3-({5-[N-(2-chlorobenzyl)carbamoyl]-1′,1′-dioxido-2-vinyl-1,2,2′,3′,5′,6′-hexahydrospiro[indole-3,4′-thiopyran]-1-yl}sulfonyl)benzoate] | 622 |
| CC1N(S(=O)(=O)c2ccc(F)cc2)c2ccc(C(=O)NCc3ncccc3Cl)cc2C12CCOCC2 (racemic) [Example 1, N-[(3-Chloropyridin-2-yl)methyl]-1-[(4-fluorophenyl)sulfonyl]-2-methyl-1,2,2′,3′,5′,6′-hexahydrospiro[indole-3,4′-pyran]-5-carboxamide] | 584 |
| O=C(NCc1ccc(C(F)(F)F)cn1)c1ccc2c(c1)C1(CCS(=O)(=O)CC1)C(C1CC1)N2S(=O)(=O)c1ccc(F)cc1 (centres unmarked) [Example 65, 2-cyclopropyl-1-[(4-fluorophenyl)sulfonyl]-N-{[5-(trifluoromethyl)pyridin-2-yl]methyl}-1,2,2′,3′,5′,6′-hexahydrospiro[indole-3,4′-thiopyran]-5-carboxamide 1′,1′-dioxide] | 479 |
| COc1cccc(S(=O)(=O)N2c3ccc(C(=O)NCc4ncccc4C)cc3C3(CCS(=O)(=O)CC3)C2C2CC2)c1 (single isomer, unassigned) [Example 45.1, 2-cyclopropyl-1-[(3-methoxyphenyl)sulfonyl]-N-[(3-methylpyridin-2-yl)methyl]-1,2,2′,3′,5′,6′-hexahydrospiro[indole-3,4′-thiopyran]-5-carboxamide 1′,1′-dioxide] | 253 |
| NS(=O)(=O)c1cccc(NC(=O)c2ccc3c(c2)C2(CCS(=O)(=O)CC2)C(C2CC2)N3S(=O)(=O)c2ccc(F)cc2)c1 (single isomer, unassigned) [Example 30.2, 2-cyclopropyl-1-[(4-fluorophenyl)sulfonyl]-N-(3-sulfamoylphenyl)-1,2,2′,3′,5′,6′-hexahydrospiro[indole-3,4′-thiopyran]-5-carboxamide 1′,1′-dioxide] | 190 |
| O=C(NCc1ncccc1Cl)c1ccc2c(c1)C1(CCS(=O)(=O)CC1)C(C1CC1)N2S(=O)(=O)c1ccc(F)cc1 (single isomer, unassigned) [Example 14.2, N-[(3-Chloropyridin-2-yl)methyl]-2-cyclopropyl-1-[(4-fluorophenyl)sulfonyl]-1,2,2′,3′,5′,6′-hexahydrospiro[indole-3,4′-thiopyran]-5-carboxamide 1′,1′-dioxide] | 5390 |
| COc1cccc(S(=O)(=O)N2c3ccc(C(=O)NCc4ncccc4C(F)(F)F)cc3C3(CCS(=O)(=O)CC3)C2C2CC2)c1 (centres unmarked) [Example 39, 2-cyclopropyl-1-[(3-methoxyphenyl)sulfonyl]-N-{[3-(trifluoromethyl)pyridin-2-yl]methyl}-1,2,2′,3′,5′,6′-hexahydrospiro[indole-3,4′-thiopyran]-5-carboxamide 1′,1′-dioxide] | 53 |
| COc1cccc(S(=O)(=O)N2c3ccc(C(=O)NCc4ccccc4F)cc3C3(CCS(=O)(=O)CC3)C2C2CC2)c1 (single isomer, unassigned) [Example 47.1, 2-cyclopropyl-N-(2-fluorobenzyl)-1-[(3-methoxyphenyl)sulfonyl]-1,2,2′,3′,5′,6′-hexahydrospiro[indole-3,4′-thiopyran]-5-carboxamide 1′,1′-dioxide] | 73 |
| O=C(NCc1ccccc1Cl)c1ccc2c(c1)C1(CCSCC1)C(C1CC1)N2S(=O)(=O)c1ccc(F)cc1 (single isomer, unassigned) [Example 12.2, N-(2-Chlorobenzyl)-2-cyclopropyl-1-[(4-fluorophenyl)sulfonyl]-1,2,2′,3′,5′,6′-hexahydrospiro[indole-3,4′-thiopyran]-5-carboxamide] | 3730 |
| N#Cc1ccc(S(=O)(=O)N2c3ccc(C(=O)Nc4cncc(Cl)c4)cc3C3(CCS(=O)(=O)CC3)C2C2CC2)cc1 (centres unmarked) [Example 71, N-(5-chloropyridin-3-yl)-1-[(4-cyanophenyl)sulfonyl]-2-cyclopropyl-1,2,2′,3′,5′,6′-hexahydrospiro[indole-3,4′-thiopyran]-5-carboxamide 1′,1′-dioxide] | 52 |
| O=C(Nc1ccon1)c1ccc2c(c1)C1(CCS(=O)(=O)CC1)C(C1CC1)N2S(=O)(=O)c1ccc(F)cc1 (centres unmarked) [Example 63, 2-cyclopropyl-1-[(4-fluorophenyl)sulfonyl]-N-(1,2-oxazol-3-yl)-1,2,2′,3′,5′,6′-hexahydrospiro[indole-3,4′-thiopyran]-5-carboxamide 1′,1′-dioxide] | 325 |
| N#Cc1ccc(S(=O)(=O)N2c3ccc(C(=O)Nc4ncco4)cc3C3(CCS(=O)(=O)CC3)C2C2CC2)cc1 (centres unmarked) [Example 73, 1-[(4-cyanophenyl)sulfonyl]-2-cyclopropyl-N-(1,3-oxazol-2-yl)-1,2,2′,3′,5′,6′-hexahydrospiro[indole-3,4′-thiopyran]-5-carboxamide 1′,1′-dioxide] | 130 |
